Measured values as given in PMC8175851, “Effects of Genetic Polymorphism in CYP2D6, CYP2C19, and the Organic Cation Transporter OCT1 on Amitriptyline Pharmacokinetics in Healthy Volunteers and Depressive Disorder Patients” (Frontiers in Pharmacology, 2021).
“And” between values parts separate entries of the source, which are not always exact repeats. Equal values may be shown once. Read-outs that look alike come from different tables or passages of the source.

Assay: Pharmacokinetics of AT and NT in healthy volunteers after a single dose of 25 mg amitriptyline
Assay type: in vivo, human
Details: for AUC(0-inf) / AUC(0-t) / Cmax / Tmax / half-life: both sexes, human, plasma, po, 25 mg, single oral 25 mg AT; for AUC(0-t): read-out: AUC48h; for Cmax: read-out: Cmax
From the text: In order to enrich the study sample with the less frequent functionally deficient OCT1 variants, participants were selected based on OCT1 genotype from an internal database at the Institute of Clinical Pharmacology of the University Medical Center Göttingen. All volunteers who are listed in the internal database had agreed to it and the database was approved by the ethics committee of the University of Göttingen. […] Additional subjects with heterozygous genotypes were included to provide a better understanding of the effects of specific variants and the mode of inheritance. All volunteers gave their written informed consent before participation in the study. The study was approved by the ethics committee of the University of Göttingen and the German Federal Institute for Drugs and Medical Devices (BfArM). It was registered at the clinical trials databases Clinicaltrials.gov (NCT02054299) and EudraCT (number 2012-003546-33). […] Volunteers who underwent regular drug treatments other than oral contraceptives or who suffered from any relevant chronic illness, as well as pregnant or lactating women, were not included. All subjects were healthy according to a detailed medical history, medical examination, electrocardiogram, urine status and clinical chemistry, and haematology parameters (sodium, potassium, total bilirubin, aspartate aminotransferase, alanine-aminotransferase, creatinine, C-reactive protein, thyroid-stimulating hormone, haemoglobin, erythrocyte, thrombocyte, and leucocyte counts). […] After centrifugation (13,000 rpm, 15 min, room temperature), two-thirds of the supernatant were transferred to a new reaction tube and evaporated at 40°C under nitrogen flow. The residue was reconstituted under shaking in 0.1% methanoic acid and briefly centrifuged before quantification using a Nexera UHPLC system (Shimadzu, Kyoto, Japan) coupled to an API 4000 tandem mass spectrometer (AB Sciex, Darmstadt, Germany). […] PerkinElmer, Rodgau, Germany) with a Phenomenex C18 pre-column (4 × 2 mm, Phenomenex, Aschaffenburg, Germany). […] The lower limit of quantification was 0.5 ng/ml for AT and 0.1 ng/ml for NT. […] The mass spectrometry detection parameters are listed in Supplementary Table S1. For the study in healthy volunteers, the primary endpoints were the AUCs of plasma AT and NT concentrations. Secondary endpoints were the other pharmacokinetic parameters of AT and NT, as well as heart rate, blood pressure, pupil size effects, and possible adverse events (headache, fatigue, visual or hearing impairments, restlessness, nausea, dizziness, dry mouth, tremor, as well as sensations of hypothermia and heart palpitations determined using a visual analogue scale test). Pharmacokinetic parameters were calculated by non-compartmental analysis using Phoenix 64 WinNonlin version 6.3 (Certara Inc., Princeton, NJ, United States). AUCinf of AT was calculated from the time of dosing using the linear/log trapezoidal rule and extrapolated to infinity based on the last predicted concentration and using the terminal elimination rate constant (lambda z). AUC of NT was calculated from the time of dosing until the last measurement at 48 h using the linear/log trapezoidal rule, as a decline in NT concentrations was not observed in some subjects and extrapolation to infinity thus not possible.

[1] = healthy volunteers, 0 active OCT1 alleles (n = 12)
[2] = healthy volunteers, 1 active OCT1 allele (n = 9)
[3] = healthy volunteers, 2 active OCT1 alleles (n = 14)
[4] = healthy volunteers, CYP2C19 activity score 1 (n = 5), mean
[5] = healthy volunteers, CYP2C19 activity score 1.5 (n = 2), mean
[6] = healthy volunteers, CYP2C19 activity score 2 (n = 16), mean
[7] = healthy volunteers, CYP2C19 activity score 2.5 (n = 10), mean
[8] = healthy volunteers, CYP2D6 activity 0 (n = 3), mean
[9] = healthy volunteers, CYP2D6 activity 0.5 (n = 2), mean
[10] = healthy volunteers, CYP2D6 activity 1 (n = 10), mean
[11] = healthy volunteers, CYP2D6 activity 1.5 (n = 6), mean
[12] = healthy volunteers, CYP2D6 activity 2 (n = 11), mean
[13] = healthy volunteers, CYP2D6 activity 2.5 (n = 1), mean
[14] = healthy volunteers, CYP2D6 activity 3 (n = 2), mean

maximum concentration of unbound AT in the portal vein (estimated) (based on the calculations by Ahlin et al. and Ito et al., listed as AT): 745.9 µg/L and 2.69 µM | AUC(0-inf) (35 healthy volunteers, read-out: AUCinf (range over all volunteers)): 110 to 430 ng·h/mL | AUC(0-t) [1]: 162 ± 40.5 ng·h/mL | AUC(0-inf) (healthy volunteers, 0 active OCT1 alleles (n = 12), read-out: AUCinf): 199 ± 60 ng·h/mL | Cmax [1]: 9.9 ± 3.9 ng/mL | AUC(0-t) [2]: 184 ± 56 ng·h/mL | AUC(0-inf) (healthy volunteers, 1 active OCT1 allele (n = 9), read-out: AUCinf): 228 ± 72.4 ng·h/mL | Cmax [2]: 10.5 ± 3.3 ng/mL | AUC(0-t) [3]: 194 ± 66.3 ng·h/mL | AUC(0-inf) (healthy volunteers, 2 active OCT1 alleles (n = 14), read-out: AUCinf): 243 ± 87.5 ng·h/mL | Cmax [3]: 11.6 ± 4 ng/mL | AUC(0-t) [4]: 183 ng·h/mL | AUC(0-inf) (healthy volunteers, CYP2C19 activity score 1 (n = 5), mean, read-out: AUCinf): 231 ng·h/mL | Cmax [4]: 11.1 ng/mL | AUC(0-t) [5]: 256 ng·h/mL | AUC(0-inf) (healthy volunteers, CYP2C19 activity score 1.5 (n = 2), mean, read-out: AUCinf): 317 ng·h/mL | Cmax [5]: 16.2 ng/mL | AUC(0-t) [6]: 172 ng·h/mL | AUC(0-inf) (healthy volunteers, CYP2C19 activity score 2 (n = 16), mean, read-out: AUCinf): 210 ng·h/mL | Cmax [6]: 10.5 ng/mL | AUC(0-t) [7]: 171 ng·h/mL | AUC(0-inf) (healthy volunteers, CYP2C19 activity score 2.5 (n = 10), mean, read-out: AUCinf): 211 ng·h/mL | Cmax [7]: 9.5 ng/mL | AUC(0-t) [8]: 236 ng·h/mL | AUC(0-inf) (healthy volunteers, CYP2D6 activity 0 (n = 3), mean, read-out: AUCinf): 311 ng·h/mL | Cmax [8]: 10.9 ng/mL | AUC(0-t) [9]: 166 ng·h/mL | AUC(0-inf) (healthy volunteers, CYP2D6 activity 0.5 (n = 2), mean, read-out: AUCinf): 214 ng·h/mL | Cmax [9]: 12.7 ng/mL | AUC(0-t) [10]: 199 ng·h/mL | AUC(0-inf) (healthy volunteers, CYP2D6 activity 1 (n = 10), mean, read-out: AUCinf): 251 ng·h/mL | Cmax [10]: 11.9 ng/mL | AUC(0-t) [11]: 184 ng·h/mL | AUC(0-inf) (healthy volunteers, CYP2D6 activity 1.5 (n = 6), mean, read-out: AUCinf): 226 ng·h/mL | Cmax [11]: 10.3 ng/mL | AUC(0-t) [12]: 162 ng·h/mL | AUC(0-inf) (healthy volunteers, CYP2D6 activity 2 (n = 11), mean, read-out: AUCinf): 196 ng·h/mL | Cmax [12]: 10 ng/mL | AUC(0-t) [13]: 142 ng·h/mL | AUC(0-inf) (healthy volunteers, CYP2D6 activity 2.5 (n = 1), mean, read-out: AUCinf): 158 ng·h/mL | Cmax [13]: 7 ng/mL | AUC(0-t) [14]: 130 ng·h/mL | AUC(0-inf) (healthy volunteers, CYP2D6 activity 3 (n = 2), mean, read-out: AUCinf): 157 ng·h/mL | Cmax [14]: 10.2 ng/mL | Tmax [1]: 3.4 ± 1.6 h | half-life [1]: 20.3 ± 3.8 h | Tmax [2]: 3.1 ± 1 h | half-life [2]: 20.5 ± 3.9 h | Tmax [3]: 2.9 ± 1.4 h | half-life [3]: 21 ± 4 h | Tmax [4]: 2.6 h | half-life [4]: 21.6 h | Tmax [5]: 2 h | half-life [5]: 20.3 h | Tmax [6]: 3.2 h | half-life [6]: 20.1 h | Tmax [7]: 3.6 h | half-life [7]: 19.8 h | Tmax [8]: 3.4 h | half-life [8]: 23.7 h | Tmax [9]: 2 h | half-life [9]: 24.2 h | Tmax [10]: 2.7 h
SMILES: CN(C)CCC=C1c2ccccc2CCc2ccccc21 [Amitriptyline, amitriptyline]
